SMILES strings stand for the structures. Values joined by “and” are separate entries in the source; they are usually repeats but may differ in a detail not shown here. Identical values can stand only once.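 How tested: cells in 96-well plates exposed to compound for 48 hours at five concentrations. Here, GI50 denotes the concentration required for 50% inhibition of growth. TGI: total growth inhibition.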 Bounds are passed on as bounds.

The text below walks through data of PubChem BioAssay (NCI).

Holding throughout (test): NCI anticancer screen, dose series, 48 h
The subject of experiment [1] is HL-60(TB) leukemia.
For experiment [2], the system named is HOP-62 NSCLC.
Experiment [3] deals with HT29 colon.
In experiment [4] the test system is K-562 leukemia.
Experiment [5] relates to MALME-3M melanoma.
In experiment [6] the test system is MDA-MB-231 breast.
For experiment [7], the system named is NCI-H23 lung.
Experiment [8] relates to OVCAR-4 ovarian.
Experiment [9] has as its system OVCAR-8 ovarian.
In experiment [10] the test system is UACC-62 melanoma.

With `CNNC(=N\S(=O)(=O)c1cc(C(=O)Nc2ccc(Cl)cc2)c(Cl)cc1SCc1ccccc1)/N=C/c1ccc([N+](=O)[O-])s1`, the GI50 in experiment [1] was > 100 µM; in [2] it was > 36 µM; in experiment [3], > 28.2 µM; in experiment [4] it was 15.9 µM; in experiment [5], > 100 µM; in experiment [6] it was 6.2 µM. In addition, the GI50 in experiment [7], in experiment [8], in experiment [9] and in experiment [10] was > 100 µM throughout. The TGI in [1], in [2], in experiment [3], in [4], in experiment [5] and in experiment [6] was > 100 µM in each case. Also, the TGI in experiment [7], in experiment [8], in [9] and in experiment [10] was > 100 µM in each case.
Consider `c1ccc(-c2nnc(Nc3ccc4c(c3)OCCO4)o2)c(NCc2ccncc2)c1`, for which the GI50 in experiment [1] was 0.0236 µM; in [2] it was 0.0297 µM; in experiment [3] it was 0.0321 µM; in experiment [4], < 0.01 µM; in experiment [5], 0.68 µM; in experiment [6], 0.0769 µM. The GI50 in experiment [7] is 0.033 µM; in [8] it was 0.0818 µM; in [9], 0.0419 µM; in experiment [10], 0.0312 µM. For the same compound, the TGI in experiment [1] was 0.722 µM; in [2] it was 19.9 µM; in experiment [3], 1.75 µM; in experiment [4], 4.43 µM; in [5], > 67.3 µM; in [6], > 100 µM. The TGI was 6.81 µM in [7], 21.9 µM in [8], > 42.2 µM in experiment [9] and > 100 µM in experiment [10].
Regarding `C/C(=N\NC(=O)c1ccccc1O)c1cccc(/C(C)=N/NC(=O)c2ccccc2O)n1`, the GI50 in experiment [1] was 0.784 µM and 0.504 µM; in experiment [2], 0.467 µM; in [5], 0.522 µM; in [6], 10.6 µM; in experiment [7] it was 16 µM and 1.73 µM; in [8], 15.9 µM. The values for the GI50 in [9] and in experiment [10] were 0.571 µM and 0.614 µM, respectively. In addition, the TGI in experiment [2] is 31.7 µM and 6.42 µM; in [3], > 100 µM; in [4] it was > 100 µM; in experiment [5], 43.9 µM and > 100 µM; in [6], > 100 µM; in experiment [7] it was 63.8 µM and > 100 µM. The TGI was > 100 µM in experiment [8]; 51.6 µM and > 100 µM in experiment [9]; 20.6 µM and > 100 µM in experiment [10].
Take `COc1cc2nc(N3CCCC3)nc(Nc3ccccc3)c2cc1OC`: the GI50 in experiment [1] was 0.635 µM; in [2] it was 1.93 µM; in experiment [3], 1.34 µM; in [4], 0.382 µM; in experiment [5], 1.88 µM; in experiment [6], 1.56 µM. Besides, the GI50 in experiment [7] was 1.93 µM; in experiment [8] it was 1.43 µM; in experiment [9] it was 1.54 µM; in experiment [10] it was 1.73 µM. Further, the TGI in experiment [1] is 2.42 µM; in experiment [2], 4.2 µM; in [3], 3.11 µM; in [4], 2.07 µM; in experiment [5], 3.37 µM; in experiment [6] it was 3.11 µM. In addition, the TGI worked out at 3.76 µM in experiment [7], 2.8 µM in [8], 5.06 µM in [9] and 3.23 µM in experiment [10].
With `S=C=NCc1ccccc1`, the TGI in [1] is 3.95 µM; in [2] it was 11.7 µM; in experiment [3] it was > 31.3 µM; in experiment [4], > 19.9 µM; in experiment [5] it was 19.6 µM; in experiment [6] it was 5.14 µM. In addition, the TGI amounted to 15.2 µM in experiment [7], 13.8 µM in experiment [8], 9.31 µM in experiment [9] and 14.1 µM in experiment [10].
As to `CC1=CC2=C(C(N)=O)C(=O)OC2(C)C(c2ccccc2)C1` (centres undefined), the TGI in experiment [1], in [2], in experiment [3], in experiment [4], in experiment [5] and in [6] was > 100 µM each time. Besides, the TGI in experiment [8], in experiment [9] and in experiment [10] was > 100 µM throughout.
Consider `Nc1c(C(=O)c2cccc(C#CCN3CCOCC3)c2)cnn1-c1ccc(F)cc1`, for which the GI50 is 16.4 µM in experiment [1]; > 25 µM in experiment [2]; 10.9 µM in experiment [3]; 7.91 µM in experiment [4]; > 12.4 µM in experiment [5]; > 25 µM in [6]. Besides, the GI50 in experiment [7] was > 25 µM; in experiment [8] it was > 25 µM; in experiment [9] it was > 25 µM; in experiment [10], 19.6 µM. In addition, the TGI in experiment [1], in experiment [2], in experiment [3], in [4], in [5] and in experiment [6] was > 25 µM throughout. Further, the TGI in [7], in [8], in experiment [9] and in experiment [10] was > 25 µM throughout.
Consider `CCN(CC)CCCOc1cc(O)c2c(=O)cc(-c3ccccc3)oc2c1`, for which the GI50 was 3.98 µM in [1]; 5.29 µM in experiment [2]; 2.36 µM in experiment [3]; 1.48 µM in experiment [4]; 9.81 µM in experiment [5]; 6.54 µM in experiment [6]. The GI50 in experiment [7] is 11.4 µM; in [8], 5.94 µM; in experiment [10] it was 3.89 µM. The TGI in experiment [1] stood at 15.3 µM; in experiment [2], 19.4 µM; in experiment [3], 12.7 µM; in experiment [4], 3.67 µM; in [5] it was 25 µM; in experiment [6], 18.9 µM. Further, the TGI in experiment [7] came to 23.4 µM; in experiment [8] it was 25.1 µM; in experiment [9], 28.2 µM; in experiment [10], 12.7 µM.
Regarding `C[C@H]1[C@H](C)CC[C@]2(C(=O)O)CC[C@]3(C)C(=CC[C@@H]4[C@@]5(C)CC[C@H](OC(=O)/C=C/c6ccc(O)cc6)C(C)(C)[C@@H]5CC[C@]43C)[C@H]12`, the GI50 in [1] is 6.53 µM; in experiment [2] it was 3.63 µM; in experiment [3] it was 18.8 µM; in experiment [4], 7.14 µM; in [5] it was 1.9 µM; in experiment [6] it was 5.1 µM. In addition, the GI50 is 3.11 µM in experiment [7], 9.42 µM in [8], 2.8 µM in experiment [9] and 15.1 µM in experiment [10]. The TGI in experiment [1] was 34.3 µM; in [2] it was 7.03 µM; in experiment [3] it was > 100 µM; in [4], 47.2 µM; in experiment [5], 20 µM; in experiment [6], 18.3 µM. Besides, the TGI was found to be 8.36 µM in experiment [7], 38.1 µM in experiment [8], 18.3 µM in experiment [9] and 31.6 µM in experiment [10].
Turning to `COc1ccc2[nH]c(=O)c(/C=C/C(=O)/C=C/c3ccc(O)c(OC)c3)cc2c1`, the GI50 in experiment [1] is 2.24 µM; in experiment [2], 2.03 µM; in experiment [3] it was 0.777 µM; in [4], 1.35 µM; in [5], 2.16 µM; in [6] it was 1.92 µM. In addition, the GI50 in experiment [7] was 2.04 µM; in [8], 2.91 µM; in experiment [9], 1.52 µM; in experiment [10] it was 1.52 µM. For the same compound, the TGI in experiment [1] was > 100 µM; in experiment [2] it was 4.75 µM; in experiment [3], 2.12 µM; in [4], > 100 µM; in [5], 5.28 µM; in experiment [6] it was 3.78 µM. The TGI amounted to 4.88 µM in experiment [7], 29.4 µM in [8], 11.5 µM in experiment [9] and 3.19 µM in experiment [10].
With `O=C(O)c1ccc(NCc2nc3cc4ccccc4cc3[nH]2)cc1`, the TGI in [1] is > 54.8 µM; in experiment [2], > 100 µM; in experiment [3], > 100 µM; in experiment [4], > 100 µM; in experiment [5] it was 0.237 µM; in [6], > 100 µM. Also, the TGI in experiment [7], in experiment [8], in experiment [9] and in [10] was > 100 µM throughout.
Turning to `CO/N=C(/COc1c(-c2ccccc2)oc2ccccc2c1=O)c1ccc(OC)cc1`, the GI50 in experiment [1] was 21.5 µM; in experiment [2], > 100 µM; in experiment [3] it was 51.6 µM; in [4], 42.5 µM; in experiment [5] it was > 100 µM; in [6], 31.3 µM. Further, the GI50 was > 100 µM in experiment [7], 81.4 µM in [8], > 100 µM in experiment [9] and 53.5 µM in experiment [10]. The TGI in experiment [1], in experiment [2], in [3], in experiment [4], in experiment [5] and in [6] was > 100 µM in each case. The TGI in [7], in experiment [8], in [9] and in experiment [10] was > 100 µM each time.
Regarding `COc1ccc(-c2cc(-c3cn[nH]c3-c3ccccn3)ccn2)cc1`, the GI50 in [1] is > 25 µM; in experiment [2] it was > 25 µM; in [3], > 25 µM; in [4], 14 µM; in experiment [5], > 25 µM; in experiment [6] it was > 25 µM. For the same compound, the GI50 in experiment [7], in experiment [8], in experiment [9] and in experiment [10] was > 25 µM throughout. The TGI in experiment [1], in [2], in experiment [3], in experiment [4], in [5] and in experiment [6] was > 25 µM each time. In addition, the TGI in [7], in [8], in experiment [9] and in experiment [10] was > 25 µM throughout.
`Nc1c(C(=O)c2cccc(CCC3(O)CCCC3)c2)cnn1-c1ccc(F)cc1`: the GI50 is 16.2 µM in [1]; > 25 µM in [2]; 18.2 µM in experiment [3]; 10.1 µM in experiment [4]; 7.88 µM in experiment [5]; > 20.9 µM in experiment [6]. Also, the GI50 in experiment [7] is 14.6 µM; in experiment [8] it was 8.71 µM; in experiment [9] it was 11.4 µM; in [10], 12.5 µM. The TGI in experiment [1], in experiment [2], in experiment [3], in experiment [4], in experiment [5] and in experiment [6] was > 25 µM each time. Besides, the TGI in experiment [7], in [8], in experiment [9] and in [10] was > 25 µM throughout.
As to `CO[C@H]1C[C@@H]2CC[C@@H](C)[C@@](O)(O2)C(=O)C(=O)N2CCCC[C@H]2C(=O)O[C@H]([C@H](C)C[C@@H]2CC[C@@H](OP(C)(C)=O)[C@H](OC)C2)CC(=O)[C@H](C)/C=C(\C)[C@@H](O)[C@@H](OC)C(=O)[C@H](C)C[C@H](C)/C=C/C=C/C=C/1C`, the GI50 in experiment [1] was 17.5 µM; in experiment [2], < 0.01 µM; in experiment [3], 8.07 µM; in [4] it was 11.7 µM; in experiment [5], < 0.01 µM; in experiment [6] it was 12.4 µM. Moreover, the GI50 in [7] is 11.1 µM; in [8] it was 0.698 µM; in experiment [9] it was < 0.01 µM; in experiment [10], 0.386 µM. Besides, the TGI is 39.8 µM in experiment [1]; 21.5 µM in experiment [2]; 24 µM in experiment [3]; > 69.4 µM in experiment [4]; 16.8 µM in [5]; 27.7 µM in [6]. The TGI in [7] worked out at 29.1 µM; in [8], 21.3 µM; in experiment [9] it was 28.8 µM; in experiment [10] it was 20.7 µM.
In the case of `O=C1OC(C2=CC(=O)c3ccccc3C2=O)C(Cl)=C1Cl` (centres undefined), the TGI in experiment [1] is > 100 µM; in experiment [2], > 100 µM; in [3], > 100 µM; in [4], 83.3 µM; in [5], 57.9 µM; in experiment [6] it was 36 µM. In addition, the TGI in [7] stood at 59.4 µM; in experiment [9], 29.8 µM; in experiment [10] it was 39.5 µM.
